Experimental data as given in a flash point compilation (Sun et al. 2020).
Counter-ions that a name gives are not always drawn.

Row | flash point [°C] | SMILES
1 | 78.00 | CCc1ccccc1O [2-ethylphenol]
2 | 85.00 | CCC(C(=O)O)C(=O)O [2-ethylpropanedioic acid]
3 | 93.00 | O=COCCOC=O [2-formyloxyethyl formate]
4 | 121.00 | CSCCC(O)C(=O)O (stereo unspecified) [2-hydroxy-4-methylsulfanylbutanoic acid]
5 | 78.00 | O=Cc1ccccc1O [2-hydroxybenzaldehyde]
6 | 157.00 | O=C(O)c1ccccc1O [2-hydroxybenzoic acid]
7 | 97.00 | C=C(C)C(=O)OCCO [2-hydroxyethyl 2-methylprop-2-enoate]
8 | -7.00 | CCC(C)(C)OC [2-methoxy-2-methylbutane]
9 | -26.00 | COC(C)(C)C [2-methoxy-2-methylpropane]
10 | 104.00 | C=CCc1ccc(O)c(OC)c1 [2-methoxy-4-prop-2-enylphenol]
11 | 82.00 | C=CC(=O)OCCOC [2-methoxyethyl prop-2-enoate]
12 | 79.00 | CC(C=O)=Cc1ccccc1 [2-methyl-3-phenylprop-2-enal]
13 | 100.00 | Cc1ccc(C(C)C)cc1O [2-methyl-5-propan-2-ylphenol]
14 | 51.00 | CC(C)CN(CC(C)C)CC(C)C [2-methyl-N,N-bis(2-methylpropyl)propan-1-amine]
15 | 67.00 | Cc1ccccc1C=O [2-methylbenzaldehyde]
16 | 59.00 | CC1CCCCC1O (stereo unspecified) [2-methylcyclohexan-1-ol]
17 | 46.00 | CCCCCC(C)(C)S [2-methylheptane-2-thiol]
18 | 33.00 | C=C(C)CO [2-methylprop-2-en-1-ol]
19 | -40.00 | CC(C)C=O [2-methylpropanal]
20 | 127.00 | CC(CO)CO [2-methylpropane-1,3-diol]
21 | 120.00 | CC(C)C(=O)O.CC(C)C(O)C(C)(C)CO (stereo unspecified) [2-methylpropanoic acid;2,2,4-trimethylpentane-1,3-diol]
22 | 56.00 | CC(C)C(=O)O [2-methylpropanoic acid]
23 | 49.00 | C=C(C)C(=O)OCC(C)C [2-methylpropyl 2-methylprop-2-enoate]

Row | SMILES | flash point [°C]
24 | CCc1ccc2ccccc2c1 [2-ethylnaphthalene] | 104.00
25 | O=C(Cl)c1ccccc1F [2-fluorobenzoyl chloride] | 82.00
26 | CC(C)(C)OO [2-hydroperoxy-2-methylpropane] | 27.00
27 | CC(C)(OO)c1ccccc1 [2-hydroperoxypropan-2-ylbenzene] | 57.00
28 | N#CC(O)c1ccccc1 (stereo unspecified) [2-hydroxy-2-phenylacetonitrile] | 82.00
29 | C=CC(=O)OCCO [2-hydroxyethyl prop-2-enoate] | 101.00
30 | C=CC(=O)OCC(C)O (stereo unspecified) [2-hydroxypropyl prop-2-enoate] | 65.00
31 | COc1ccccc1N [2-methoxyaniline] | 99.00
32 | CC1CN1 (stereo unspecified) [2-methylaziridine] | -4.00
33 | C#CC(C)(C)O [2-methylbut-3-yn-2-ol] | 25.00
34 | CCC(C)C [2-methylbutane] | -57.00
35 | Cc1ccc2ccccc2c1 [2-methylnaphthalene] | 98.00
36 | CC(C#N)CCC#N (stereo unspecified) [2-methylpentanedinitrile] | 126.00
37 | Cc1ccccc1O [2-methylphenol] | 81.00
38 | C=C(C)C#N [2-methylprop-2-enenitrile] | 13.00
39 | CC(C)CON=O [2-methylpropyl nitrite] | -23.00
40 | O=[N+]([O-])c1ccccc1O [2-nitrophenol] | 108.00
41 | CC(C)[N+](=O)[O-] [2-nitropropane] | 24.00
